This is an account of results in PMC8565842, “Structural snapshots of human PepT1 and PepT2 reveal mechanistic insights into substrate and drug transport across epithelial membranes” (Science Advances, 2021).

The target of the assay is T1, HsPepT2 (Homo sapiens, UniProt Q16348).
T1 construct: The wild-type HsPepT2 gene was cloned into a pXLG vector; expressed in transfected cells; host or cells: HEK293F cells, transient transfection (pXLG vector)
T1 sequence (Q16348 1-729): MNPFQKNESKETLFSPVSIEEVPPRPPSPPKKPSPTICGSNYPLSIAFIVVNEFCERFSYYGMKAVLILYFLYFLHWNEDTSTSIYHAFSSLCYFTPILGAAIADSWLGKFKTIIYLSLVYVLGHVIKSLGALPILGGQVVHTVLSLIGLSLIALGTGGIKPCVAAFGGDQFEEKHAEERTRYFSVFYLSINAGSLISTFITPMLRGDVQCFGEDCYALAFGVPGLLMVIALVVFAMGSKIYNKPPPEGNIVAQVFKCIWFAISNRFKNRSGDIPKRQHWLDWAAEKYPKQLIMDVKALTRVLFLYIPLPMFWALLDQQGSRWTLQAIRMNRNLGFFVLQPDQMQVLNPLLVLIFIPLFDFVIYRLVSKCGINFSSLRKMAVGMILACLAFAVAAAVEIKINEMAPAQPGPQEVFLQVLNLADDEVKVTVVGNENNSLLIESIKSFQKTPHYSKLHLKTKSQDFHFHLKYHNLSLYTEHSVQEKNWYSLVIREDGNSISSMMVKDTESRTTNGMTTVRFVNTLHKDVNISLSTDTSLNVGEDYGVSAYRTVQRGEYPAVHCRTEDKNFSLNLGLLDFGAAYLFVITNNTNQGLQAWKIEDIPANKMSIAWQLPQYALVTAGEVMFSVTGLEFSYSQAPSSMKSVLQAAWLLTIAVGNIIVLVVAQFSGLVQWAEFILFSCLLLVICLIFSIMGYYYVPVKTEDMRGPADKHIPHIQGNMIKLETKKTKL
Description: Whole-cell AK-AMCA uptake competition assay in HsPepT2-transfected HEK293F cells. It is filed as cell-based. To be noted: for IC50: HsPepT2-transfected HEK293F cells, 50 μM β-Ala-Lys-AMCA, pH 6.0, 10 min at 37°C, read-out: IC50, concentration-dependent competition of β-Ala-Lys-AMCA uptake. The protocol:
The wild-type […]2 gene was cloned into a pXLG vector ([61]) containing an expression cassette composed of an N-terminal hexa-histidine tag followed by enhanced green fluorescent protein and a tobacco etch virus protease cleavage site. […] The reaction was stopped by adding 200 μl of ice-cold buffer, and the cells were then washed three times with the same buffer. Last, the cells were resuspended in 200 μl of buffer, and the fluorescence was measured in an M1000 microplate reader (TECAN) with excitation at 350 nm and emission at 450 nm. All experiments were performed in triplicates. […] For concentration-dependent uptake experiments, IC50 values were processed in GraphPad Prism 9.0 (GraphPad Software) using sigmoidal four-parameter curve fitting.

On to `NCC(=O)CCC(=O)O` [5-aminolevulinic acid], for which the IC50 turned out to be 373.5 ± 1.6 µM. On the same count and under the same terms, under `CC(C)[C@H](N)C(=O)OCC(CO)OCn1cnc2c(=O)nc(N)[nH]c21` (stereo partly drawn) [valganciclovir] stands 368.9 ± 1.5 µM. Regarding ß-Ala-Lys-AMCA, the “Uptake of the fluorescent reporter after HsPepT2 overexpression” value (HEK293 cells overexpressing HsPepT2) is reported as “specific uptake”.
